# According to patent US12447171B2 (CELGENE QUANTICEL RESEARCH, INC., priority 2019, dated 2025):
# Columns and labels:
# MCL-1 = assay: Western blot of MCL-1 in AML cell lines; type: cell-based
# Description: Lysates were quantified using a bicinchoninic acid (BCA) kit (Piece/Thermo Fisher, Waltham, MA). 20 to 30 μg protein was resolved on a 4-12% SDS-PAGE gel, transferred to PVDF membranes (80V/90 minute by wet-transfer), and blocked with Oddysey TBS blocking buffer for 1 hour and then probed with appropriate primary antibodies overnight at 4° C. using dilution as recommended by manufacturer. Membranes were washed three times for a total of 30 minutes and then incubated with secondary antibodies at room temperature in the dark for 1 hour. After another three washes, Odyssey infrared imaging system and companion software (LI-COR biosciences, Lincoln, NE, USA) were used to scan immunoblot membranes and to quantify band intensity according to the manufacturer's instructions. The ratio of proteins of interest to loading control in treated samples was normalized to the corresponding ratio in untreated cells. Antibodies used for immunoblotting were purchased from the following sources: BCL-2 (sc-7382), MCL1- (sc-819) from Santa Cruz Biotechnology (Dallas, TX, USA, Bim (2819), caspase-3 (9664) from Cell Signaling Technology; beta-Actin (A2228) from Sigma-Aldrich; DNMTI (ab188453) from AbCam; TRDye 680 goat anti-rabbit and IRDye 800 goat anti-mouse secondary antibodies (#925-68073 and #925-32212) were purchased from Li-COR Biosciences (Lincoln, NE).
# MOLM-13 xenograft model = assay: Disseminated MOLM-13 xenograft survival study; type: in vivo, mice; conditions: for Median survival: MOLM-13, NOD/SCID mice, vehicle=19 days; for survival compared to vehicle alone: MOLM-13
# Description: LEED models oral administration of AZA, while HELD models intravenous or subcutaneous administration of AZA.
# The animals were fed ad libitum water (reverse osmosis, 1 ppm Cl), and NIH 31 Modified and Irradiated Lab Diet® consisting of 18.0% crude protein, 5.0% crude fat, and 5.0% crude fiber. The mice were housed on irradiated Enrich-o'cobs™ Laboratory Animal Bedding in static microisolators on a 12-hour light cycle at 20-22° C. (68-72° F.) and 40-60% humidity.
# On each day of dosing, an appropriate amount of gilteritinib was dissolved in 0.5% methylcellulose in DI water to yield a dosing solution at 0.4 mg/mL. Each week, an appropriate amount of venetoclax was dissolved in 10% ethanol:30% PEG400:60% phosal 50 propylene glycol to yield a dosing solution at 10 mg/mL. […] Each test mouse received 5×10^6 MOLM-13 cells or 10^7 MV4-11 cells (0.2 mL cell suspension) by tail vein injection. Dosing was initiated three days after tumor cell inoculation, which was designated as Day 1 of the study. NOD/SCID mice (n=9-12/group) were randomized according to body weight and dosed. […] Vehicle was administered both IP and PO. The dosing volume for all treatments was 10 mL/kg, scaled to the weight of each individual animal.
# Animals were monitored individually for an endpoint of moribundity due to progression of the leukemia. Full hind limb paralysis, severe ocular proptosis, or moribundity was considered sufficient for euthanasia due to tumor progression. Moribund animals were defined as sick animals unable to reach food and water. These deaths were classified as death on survival study. The time to endpoint (TTE), in days, was recorded for each mouse that died of its disease or was euthanized due to extensive tumor progression. […] An animal classified as having died from treatment-related (TR) causes was assigned a TTE value equal to the day of death. An animal classified as having died from non-treatment-related (NTR) causes, or used for sampling before endpoint, was excluded from TTE calculations and all further analyses. The median TTE value was calculated for each group. The median TTE of treated mice was expressed as a percentage of the median TTE of the control mice (% T/C), and the increase in life span (ILS) was calculated as: ILS=% T/C−100%, where T=median TTE treated, and C=median TTE control. Thus, if T=C, ILS=0%.
# Animals were weighed daily on Days 1-5, then twice per week until the completion of the study. […] Individual body weight loss was monitored as per protocol and any animal that exceeded the limits for acceptable body weight loss was euthanized. Group mean body weight loss also was monitored as per protocol. Dosing was suspended in any group that exceeded the limits for acceptable mean body weight loss. If mean body weight recovered, then dosing may be resumed in that group, but at a lower dosage or less frequent dosing schedule. Acceptable toxicity for the maximum tolerated dose was defined as a group mean body-weight loss of less than 20% during the study and not more than one TR death among ten treated animals. […] A death was classified as NTR if there was no evidence that death was related to treatment side effects or tumor progression. Non-treatment-related deaths may be further characterized based on cause of death. A death may be classified as NTRa if it resulted from an accident or human error. A death may be classified as NTRu if the cause of death is unknown and there is no available evidence of death related to treatment side effects, metastasis, accident or human error, although death due to these etiologies cannot be excluded. Survival was analyzed by the Kaplan-Meier method, based on TTE values. The logrank (Mantel-Cox) and Gehan-Breslow-Wilcoxon tests determined the significance of the difference between the overall survival experiences (survival curves) of two groups, based on TTE values.
# These experiments were repeated with a second FLT3-ITD cell line, MOLM-13.
# BaF-FLT3(WT) = assay: Cell viability assay (Cell Titer-Glo), BaF3 cells expressing FLT3; type: cell-based; conditions: Mus musculus
structure (smiles),measurement,setting,value
"Nc1ncn([C@@H]2O[C@H](CO)[C@@H](O)[C@H]2O)c(=O)n1 [5-azacytidine, 4-amino-1-B-D-ribofuranosyl-1,3,5-triazin-2(1H)-one]",start of MCL-1 degradation after treatment,MCL-1; KG1α,6 h
same,start of MCL-1 degradation after treatment,MCL-1; MV4-11,6 h
same,MCL-1 degradation,MCL-1; OCI-AML2,did not lead to any degradation of MCL-1
same,start of MCL-1 degradation after treatment,MCL-1; THP-1,16 h
same,extent of MCL-1 degradation,"MCL-1; THP-1, by 24 hours",incomplete degradation by 24 hours
same,Median survival,"MOLM-13 xenograft model; HELD 5-azacytidine 3 mg/kg IP qd×5, alone or with midostaurin 100, gilteritinib 4 or venetoclax 100 mg/kg PO qd×21",32 days
same,Median survival,"MOLM-13 xenograft model; LEED 5-azacytidine 1 mg/kg IP qd×15, alone or with midostaurin 100, gilteritinib 4 or venetoclax 100 mg/kg PO qd×21",36 days
same,survival compared to vehicle alone,"MOLM-13 xenograft model; HELD 5-azacytidine 3 mg/kg IP qd×5, alone or in combination",statistically significantly increases in survival
same,survival compared to vehicle alone,"MOLM-13 xenograft model; LEED 5-azacytidine 1 mg/kg IP qd×15, alone or in combination",statistically significantly increases in survival
same,EC50,BaF-FLT3(WT),0.189 µM
